Source: article PMC11207073, “Protein Tyrosine Phosphatase 1B Inhibitors of Pueraria lobata Based on the Spectrum–Effect Relationship by Q-Marker Selection” (Molecules, 2024)

target: T1, Protein tyrosine phosphatase 1B (PTP1B) (Homo sapiens, UniProt P18031); test: pNPP phosphatase assay with commercial PTP1B, absorbance at […] nm; type: biochemical
T1 construct: gene PTPN1
T1 sequence (P18031 1-435): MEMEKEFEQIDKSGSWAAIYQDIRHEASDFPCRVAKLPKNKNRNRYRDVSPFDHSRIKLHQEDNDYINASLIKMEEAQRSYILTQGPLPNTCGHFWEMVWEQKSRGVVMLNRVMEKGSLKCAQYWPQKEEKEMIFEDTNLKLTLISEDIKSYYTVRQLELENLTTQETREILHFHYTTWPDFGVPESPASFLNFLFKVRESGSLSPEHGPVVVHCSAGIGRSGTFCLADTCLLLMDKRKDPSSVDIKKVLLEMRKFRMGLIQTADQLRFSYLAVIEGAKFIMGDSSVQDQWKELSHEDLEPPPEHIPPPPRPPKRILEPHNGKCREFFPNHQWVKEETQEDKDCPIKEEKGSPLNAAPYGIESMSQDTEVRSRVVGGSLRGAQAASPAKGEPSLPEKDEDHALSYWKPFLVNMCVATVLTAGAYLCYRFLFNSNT

Compound	IC50 [µM]
COc1cc2c(=O)c(-c3ccc(O)cc3)coc2cc1O[C@@H]1O[C@H](CO)[C@@H](O)[C@H](O)[C@H]1O (single isomer, unassigned) [peak 9, glycitin]	23.7
O=c1c(-c2ccc(O)cc2)coc2cc(O[C@@H]3O[C@H](CO)[C@@H](O)[C@H](O)[C@H]3O)cc(O)c12 (single isomer, unassigned) [peak 11, genistin]	38.1
COc1ccc(-c2coc3c([C@@H]4O[C@H](CO)[C@@H](O)[C@H](O)[C@H]4O)c(O)ccc3c2=O)cc1 (single isomer, unassigned) [peak 12, 4′-methoxypuerarin]	21.7
